Measurements from US6538037B2, “Methods for preparation and use of 1α,24(S)-dihydroxyvitamin D2” (Bone Care International, Inc., priority 1991, dated 2003).

Assays:
Hep 3B cells = experiment: Metabolism of 1α-OH-D2 in Hep 3B cells; type: in vitro ADME, human; conditions: photodiode array spectrophotometry
Protocol: Substantially pure 1α-(OH)D2 was obtained from Bone Care International, Inc. of Madison, Wis. The 1α-(OH)D2 was cultured for 48 hours with cells derived from a human hepatoma, Hep 3B, in medium devoid of fetal calf serum using known methods in the art.
Lipid extracts of the combined medium and cells were generated by known methods in the art and were subjected to high pressure liquid chromatography (HPLC) on Zorbax-S1L developed with hexane/isopropano/methanol (91:7:2). The putative 1α,24(?)-(OH)2D2 metabolite eluted between the parent 1α-(OH)D2 and standard 1α,25-(OH)2D2 (also obtained from Bone Care International, Inc. of Madison, Wis.). (As used herein, the term “1α,24(?)-(OH)2D2” is meant to indicate that the epimeric form has not been identified.) The 1α,24(?)-(OH)2D2 was further purified by this HPLC system before the metabolite's identification was undertaken using mass spectrometry analysis.
Hep 3B cells were incubated with 1α-OH-D2, as described above, at final concentrations of 1, 10, or 100 nM (Experiment 1), and 1 or 10 μM (Experiment 2) and 1α,24(S)-(OH)2D2 was extracted and purified. The 1α,24(S)-(OH)2D2 and 1α,25-(OH)2D2 metabolites were quantitated by recovered radiolabel (Experiment 1) or by photodiode array spectrophotometry (Experiment 2).

[1] = Prophylaxis of postmenopausal bone loss; type: in vivo, human; conditions: at or above 1.0 μg/day, 24 to 36 months
Protocol: A clinical study is conducted with healthy postmenopausal women having ages between 55 and 60 years. The study involves up to 80 patients randomly divided into two treatment groups, and continues for 24 to 36 months. One treatment group receives a constant dosage of 1α,24(S)-dihydroxyvitamin D2 (u.i.d.; a dose level at or above 1.0 μg/day) and the other receives a matching placebo. The study is conducted as indicated in Example 2 above.

- Rate of Production (Hep 3B cells; Experiment 2, substrate 1α-OH-D2 1 μM): 4.9 pmol per 10^6 cells/day
- Rate of Production (Hep 3B cells; Experiment 2, substrate 1α-OH-D2 10 μM): 59 pmol per 10^6 cells/day
Structure (SMILES): C=C1/C(=C\C=C2/CCC[C@]3(C)[C@@H]([C@H](C)/C=C/[C@@](C)(O)C(C)C)CC[C@@H]23)C[C@@H](O)C[C@@H]1O [1α,24(S)-(OH)2D2, 1α,24(S)-dihydroxyvitamin D2]
- losses in total body calcium, radial or spinal bone densities relative to baseline [1]: reduced losses in total body calcium, radial or spinal bone densities
- monitored safety parameters [1]: confirm the safety of long-term 1α,24(S)-dihydroxyvitamin D2 administration
